Reference: publication PMC11110727, “Exploiting thiol-functionalized benzosiloxaboroles for achieving diverse substitution patterns – synthesis, characterization and biological evaluation of promising antibacterial agents” (RSC Medicinal Chemistry, 2024)

Key:
Gram-negative rods = test: Antibacterial activity against Gram-negative rods with or without PAβN (text summaries); type: cell-based; details: for efflux assay result (MIC with PAβN): Gram-negative rods; for reduction of MIC in the presence of PAβN: Enterobacterales
Procedure: Direct antimicrobial activity was determined against the following standard strains: (1) Gram-positive cocci: methicillin-sensitive Staphylococcus aureus ATCC 6538P (MSSA), methicillin-resistant S. aureus subsp. aureus ATCC 43300 (MRSA), S. epidermidis ATCC 12228, Enterococcus faecium ATCC 6057, E. faecalis ATCC 29212, Bacillus subtilis ATCC 6633; (2) Gram-negative bacteria from Enterobacteriales order: Klebsiella pneumoniae ATCC 13883, Escherichia coli ATCC 25922, Enterobacter cloacae DSM 6234, Proteus mirabilis ATCC 12453, Serratia marcescens ATCC 13880; (3) Gram-negative non-fermentative rods: Acinetobacter baumannii ATCC 19606, Pseudomonas aeruginosa ATCC 27853, Stenotrophomonas maltophilia ATCC 12714, S. maltophilia ATCC 13637, Burkholderia cepacia ATCC 25416, Bordetella bronchiseptica ATCC 4617; (4) yeasts: Candida albicans ATCC 90028, C. krusei ATCC 6258, C. parapsilosis ATCC 22019, C. tropicalis (Castellani) Berkhout ATCC 750, C. tropicalis IBA 171, C. guilliermondii IBA 155, and Saccharomyces cerevisiae ATCC 9763. Moreover, 5 clinical strains of methicillin-resistant S. aureus were also included: NMI 664 K, NMI 1576 K, NMI 1712 K, NMI 1991 K, and NMI 2541 K. All strains were stored at −80 °C. Prior to testing, each bacterial strain was subcultured twice on tryptic soy agar TSA (bioMerieux) medium and yeast strains on Sabouraud dextrose agar (bioMerieux) for 24–48 h at 30 °C to ensure viability. The antimicrobial activity was evaluated as previously described[26] by the disc-diffusion method and the MIC determination assays according to the EUCAST (ref. [71] and [72]) and CLSI (ref. [53] and [73]) recommendations. Assessment of bactericidal (MBC) and fungicidal (MFC) activities was performed according to the CLSI recommendations.[54,74] […] The new benzosiloxaboroles were dissolved in DMSO (Sigma).
Considering that the MDR efflux pumps often contribute to Gram-negative rod resistance, the MIC values of studied agents, with or without the pump inhibitor, PAβN (20 μg mL^−1) (Sigma), were determined.[75] The MIC was determined using Mueller–Hinton II broth medium (MHB) (Becton Dickinson) by the broth microdilution method, according to the CLSI guideliness.[53] To minimize the influence of PAβN on the destabilization of bacterial cell covers, the tests were conducted in the presence of 1 mM MgSO4 (Sigma).[76] At least a 4-fold reduction in the MIC value after the addition of PAβN was considered significant.[56,77]

physchem = test: physchem
Procedure: 0.1 M NaOH in H2O/MeOH (1 : 1 v/v).
The acidity constants of benzosiloxaboroles 1e, 2e, 6, 20 and 22–24 were determined by standard pH titration with 0.05 M aq. NaOH. The measurements were performed using a thermostated (25.0 °C) glass vessel equipped with a magnetic stirrer and a 10 mL burette. Prior to the measurement, the pH glass electrode was calibrated using borax and phosphate buffers. A solution of the analyzed compound (ca. 20–40 mg) in a mixture of MeOH/H2O (v/v 1 : 1, 30 mL) was titrated until the pH of the solution exceeded the value of 12.0.

COC(=O)CCSc1ccc2c(c1F)[Si](C)(C)OB2O [Compound 4, Methyl 3-((7-fluoro-3-hydroxy-1,1-dimethyl-1,3-dihydrobenzo[c][1,2,5]oxasilaborol-6-yl)thio)propanoate]
efflux assay result (MIC with PAβN) (Gram-negative rods): actively extruded from bacterial cells

C[Si]1(C)OB(O)c2cc(F)c(SCCC#N)c(F)c21 [Compound 6, 3-((5,7-Difluoro-3-hydroxy-1,1-dimethyl-1,3-dihydrobenzo[c][1,2,5]oxasilaborol-6-yl)thio)propanenitrile]
pKa (physchem): 5.2

C[Si]1(C)OB(O)c2cc(F)c(SC3CC(=O)NC3=O)c(F)c21 (stereo not shown) [Compound 12, 3-((5,7-Difluoro-3-hydroxy-1,1-dimethyl-1,3-dihydrobenzo[c][1,2,5]oxasilaborol-6-yl)thio)pyrrolidine-2,5-dione]
reduction of MIC in the presence of PAβN (Gram-negative rods): at least 4 -fold

C[Si]1(C)OB(O)c2ccc(SC3CC(=O)NC3=O)c(F)c21 (stereo not shown) [Compound 13, 3-((7-Fluoro-3-hydroxy-1,1-dimethyl-1,3-dihydrobenzo[c][1,2,5]oxasilaborol-6-yl)thio)pyrrolidine-2,5-dione]
reduction of MIC in the presence of PAβN (Gram-negative rods): at least 4 -fold

C[Si]1(C)OB(O)c2cc(F)c(SCCS(=O)(=O)c3ccccc3)c(F)c21 [Compound 20, 5,7-Difluoro-1,1-dimethyl-6-((2-(phenylsulfonyl)ethyl)thio)benzo[c][1,2,5]oxasilaborol-3(1H)-ol]
efflux assay result (MIC with PAβN) (Gram-negative rods): actively extruded from bacterial cells
pKa (physchem; MeOH/H2O (1:1 v/v) solution): 5.7

C[Si]1(C)OB(O)c2ccc(SCCS(=O)(=O)c3ccccc3)c(F)c21 [Compound 21, 7-Fluoro-1,1-dimethyl-6-((2-(phenylsulfonyl)ethyl)thio)benzo[c][1,2,5]oxasilaborol-3(1H)-ol]
efflux assay result (MIC with PAβN) (Gram-negative rods): actively extruded from bacterial cells

CC(=O)CSc1ccc2c(c1F)[Si](C)(C)OB2O [Compound 22, 1-((7-Fluoro-3-hydroxy-1,1-dimethyl-1,3-dihydrobenzo[c][1,2,5]oxasilaborol-6-yl)thio)propan-2-one]
pKa (physchem): 6.4

C[Si]1(C)OB(O)c2ccc(SCC(=O)c3ccccc3)c(F)c21 [Compound 23, 2-((7-Fluoro-3-hydroxy-1,1-dimethyl-1,3-dihydrobenzo[c][1,2,5]oxasilaborol-6-yl)thio)-1-phenylethan-1-one]
pKa (physchem): 6.3

CCOP(=O)(OCC)Sc1c(F)cc2c(c1F)[Si](C)(C)OB2O [Compound 24, S-(5,7-Difluoro-3-hydroxy-1,1-dimethyl-1,3-dihydrobenzo[c][1,2,5]oxasilaborol-6-yl) O,O-diethyl phosphorothioate]
pKa (physchem): 4.9
